Reference: PMC10466331, “Fluorescence polarisation activity-based protein profiling for the identification of deoxynojirimycin-type inhibitors selective for lysosomal retaining alpha- and beta-glucosidases” (Chemical Science, 2023)
Like-named read-outs stand apart in the source and are kept apart here. Each block holds one compound with its values, some of them ahead of it.

Key:
Format in all cases: biochemical
[1] = target: T1, recombinant human GAA (rhGAA, Myozyme) (Homo sapiens, UniProt P10253); assay: competitive FluoPol-ABPP assay on rhGAA with TAMRA-ABP II; settings: library screen, 5 μM inhibitor, 25 nM ABP II;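 note: fluorescence polarization read at 540 nm excitation and 590 nm emission, background-corrected, normalized to uninhibited probe labelling as 100% and excess cyclosulfate as 0%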
T1 construct: purchased Genzyme

[2] = target: T2, human recombinant lysosomal α-glucosidase GAA (Myozyme) (Homo sapiens, UniProt P10253); assay: fluorogenic substrate (4MU-α-D-glucopyranoside) assay on rhGAA; settings: Table S2, 4-MU alpha glucoside substrate, read-out: IC50 on rhGAA
T2 construct: purchased Genzyme

[3] = target: T3, ER α-glucosidase GANAB (from Pompe disease Fibroblast lysates) (Homo sapiens, UniProt Q14697); assay: fluorogenic substrate (4MU-α-D-glucopyranoside) assay on GANAB in Pompe fibroblast homogenates; settings: Table S2, 4-MU alpha glucoside substrate, read-out: IC50 on GANAB;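 note: inhibitor preincubated 30 min at 37 °C with homogenate, then GANAB activity read after 2 h with 3.0 mM fluorogenic substrate in McIlvaine buffer containing 0.1% BSA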
T3 construct: Cellular homogenates of Pompe fibroblasts (1 mg mL^−1) were used as protein source for GANAB; endogenous in cells; host or cells: Pompe disease fibroblasts (homogenate)
T3 sequence (Q14697 29-944): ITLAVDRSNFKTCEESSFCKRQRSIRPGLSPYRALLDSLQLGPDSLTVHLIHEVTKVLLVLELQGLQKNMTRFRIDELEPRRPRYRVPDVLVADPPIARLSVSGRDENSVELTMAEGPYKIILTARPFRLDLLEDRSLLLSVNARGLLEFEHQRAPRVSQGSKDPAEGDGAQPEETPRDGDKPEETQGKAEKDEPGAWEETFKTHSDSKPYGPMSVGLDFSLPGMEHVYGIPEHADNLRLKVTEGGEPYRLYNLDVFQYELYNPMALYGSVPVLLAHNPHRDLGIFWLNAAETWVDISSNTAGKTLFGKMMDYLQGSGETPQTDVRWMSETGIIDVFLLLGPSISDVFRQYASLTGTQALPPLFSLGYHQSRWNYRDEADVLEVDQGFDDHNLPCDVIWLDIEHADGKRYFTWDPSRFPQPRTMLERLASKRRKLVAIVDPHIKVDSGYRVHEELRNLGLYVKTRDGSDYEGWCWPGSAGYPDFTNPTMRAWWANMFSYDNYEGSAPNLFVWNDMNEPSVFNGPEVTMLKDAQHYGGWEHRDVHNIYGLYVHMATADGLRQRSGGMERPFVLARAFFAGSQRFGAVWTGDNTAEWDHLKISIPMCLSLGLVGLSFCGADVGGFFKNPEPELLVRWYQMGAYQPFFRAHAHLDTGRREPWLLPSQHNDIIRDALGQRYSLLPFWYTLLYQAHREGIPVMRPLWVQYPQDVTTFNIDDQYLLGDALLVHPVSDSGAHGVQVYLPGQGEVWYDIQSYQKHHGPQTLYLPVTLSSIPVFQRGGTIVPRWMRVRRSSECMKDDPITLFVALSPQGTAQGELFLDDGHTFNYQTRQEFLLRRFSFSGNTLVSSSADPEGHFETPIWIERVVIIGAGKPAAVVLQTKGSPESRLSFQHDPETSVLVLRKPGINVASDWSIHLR
T3 sequence (P14314 15-528 partner): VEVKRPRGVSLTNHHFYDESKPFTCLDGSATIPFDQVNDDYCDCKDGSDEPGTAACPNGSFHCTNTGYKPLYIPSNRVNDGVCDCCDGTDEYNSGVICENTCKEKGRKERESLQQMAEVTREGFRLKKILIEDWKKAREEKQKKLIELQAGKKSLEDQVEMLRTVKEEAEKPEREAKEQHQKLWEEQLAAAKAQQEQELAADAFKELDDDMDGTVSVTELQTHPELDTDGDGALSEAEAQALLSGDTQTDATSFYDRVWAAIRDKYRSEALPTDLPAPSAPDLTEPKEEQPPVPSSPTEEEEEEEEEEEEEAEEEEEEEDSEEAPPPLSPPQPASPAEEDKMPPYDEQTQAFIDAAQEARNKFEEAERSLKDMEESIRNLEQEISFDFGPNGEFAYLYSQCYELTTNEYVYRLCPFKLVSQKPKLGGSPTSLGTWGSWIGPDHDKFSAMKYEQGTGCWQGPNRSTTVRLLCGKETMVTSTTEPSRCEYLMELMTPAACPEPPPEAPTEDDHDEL

SMILES: CC(C)(C)COCCCCCN1C[C@H](O)[C@@H](O)[C@H](O)[C@@H]1CO [#ID 26]
- GAA FP% (residual FP-signal) [1]: 23%
- IC50 [2]: 640 nM
- IC50 [3]: 29000 nM

SMILES: CCCCOCCCCCN1C[C@H](O)[C@@H](O)[C@H](O)[C@H]1CO [#ID 283]
- GAA FP% (residual FP-signal) ([1]; listed as 283): 4.4%
- IC50 ([2]; listed as 283): 720 nM
- IC50 ([3]; listed as 283): 4900 nM

SMILES: OC[C@@H]1[C@H](O)[C@@H](O)[C@H](O)CN1CCOCc1ccccc1 [#ID 47]
- GAA FP% (residual FP-signal) [1]: 34%
- IC50 [2]: 550 nM
- IC50 [3]: 4600 nM

SMILES: CCCCCOCCCCCN1C[C@H](O)[C@@H](O)[C@H](O)[C@H]1CO [#ID 281]
- GAA FP% (residual FP-signal) ([1]; listed as 281): 4.2%
- IC50 ([2]; listed as 281): 540 nM
- IC50 ([3]; listed as 281): 3700 nM

SMILES: OC[C@@H]1[C@@H](O)[C@H](O)[C@@H](O)CN1CCCCOCCC12CC3CC(CC(C3)C1)C2 [#ID 203]
- GAA FP% (residual FP-signal) [1]: 9.2%
- IC50 [2]: 42 nM
- IC50 [3]: 2100 nM

SMILES: CCCCCCCCOCCCCCN1C[C@H](O)[C@@H](O)[C@H](O)[C@H]1CO [#ID 25]
- GAA FP% (residual FP-signal) [1]: 13%
- IC50 [2]: 100 nM
- IC50 [3]: 4100 nM

SMILES: OC[C@@H]1[C@@H](O)[C@H](O)[C@@H](O)CN1CCCC(F)(F)COCc1ccc(-c2ccccc2)cc1 [#ID 349]
- GAA FP% (residual FP-signal) [1]: 3.0%
- IC50 [2]: 28 nM
- IC50 [3]: 4400 nM

SMILES: OC[C@@H]1[C@@H](O)[C@H](O)[C@@H](O)CN1CCCCCOCC(COCCCCCN1C[C@H](O)[C@@H](O)[C@H](O)[C@H]1CO)C12CC3CC(CC(C3)C1)C2 [#ID 197]
- GAA FP% (residual FP-signal) [1]: 0.4%
- IC50 [2]: 220 nM
- IC50 [3]: 1300 nM

SMILES: C[C@H](OCCCCCN1C[C@H](O)[C@@H](O)[C@H](O)[C@H]1CO)c1ccc(-c2ccccc2)cc1 [#ID 347]
- GAA FP% (residual FP-signal) [1]: 0.4%
- IC50 [2]: 42 nM
- IC50 [3]: 400 nM

SMILES: OC[C@@H]1[C@@H](O)[C@H](O)[C@@H](O)CN1CCCCCOCc1ccc(-c2ccccc2)cc1C(F)(F)F [#ID 118]
- GAA FP% (residual FP-signal) [1]: 2.9%
- IC50 [2]: 18 nM
- IC50 [3]: 480 nM

SMILES: CCCCCCCCCOCCCCCN1C[C@H](O)[C@@H](O)[C@H](O)[C@H]1CO [#ID 27]
- GAA FP% (residual FP-signal) [1]: 8.4%
- IC50 [2]: 280 nM
- IC50 [3]: 2800 nM

SMILES: CC(C)=CCOCCCCCN1C[C@H](O)[C@@H](O)[C@H](O)[C@H]1CO [#ID 100]
- GAA FP% (residual FP-signal) [1]: 19%
- IC50 [2]: 600 nM
- IC50 [3]: 9900 nM

SMILES: OC[C@@H]1[C@@H](O)[C@H](O)[C@@H](O)CN1CCCCCOCc1ccc(-c2ccccc2)cn1 [#ID 336]
- GAA FP% (residual FP-signal) [1]: 0.4%
- IC50 [2]: 37 nM
- IC50 [3]: 310 nM

SMILES: CCCCCCCCN1C[C@H](O)[C@@H](O)[C@H](O)[C@H]1CO [#ID 286]
- GAA FP% (residual FP-signal) ([1]; listed as 286): 9.1%
- IC50 ([2]; listed as 286): 760 nM
- IC50 ([3]; listed as 286): 8500 nM

SMILES: CCCCCCCOCCCCCN1C[C@H](O)[C@@H](O)[C@H](O)[C@H]1CO [#ID 276]
- GAA FP% (residual FP-signal) ([1]; listed as 276): 0.6%
- IC50 ([2]; listed as 276): 72 nM
- IC50 ([3]; listed as 276): 1810 nM

SMILES: OC[C@@H]1[C@@H](O)[C@H](O)[C@@H](O)CN1CCCCCOCc1ccc(-c2ccc3c(c2)OCCCO3)cc1 [#ID 304]
- GAA FP% (residual FP-signal) [1]: 0.6%
- IC50 [2]: 37 nM
- IC50 [3]: 1200 nM

SMILES: C[C@@H](OCCCCCN1C[C@H](O)[C@@H](O)[C@H](O)[C@H]1CO)c1ccc(-c2ccccc2)cc1 [#ID 345]
- GAA FP% (residual FP-signal) [1]: 1.5%
- IC50 [2]: 58 nM
- IC50 [3]: 370 nM

SMILES: CCCCN1C[C@H](O)[C@@H](O)[C@@H](O)[C@H]1CO [#ID 153]
- GAA FP% (residual FP-signal) [1]: 14%
- IC50 [2]: 3600 nM
- IC50 [3]: 19000 nM

Continued, values first:

- GAA FP% (residual FP-signal) [1]: 1.1%
- IC50 [2]: 89 nM
- IC50 [3]: 1300 nM
SMILES: OC[C@@H]1[C@@H](O)[C@H](O)[C@@H](O)CN1CCCCCOCc1ccc(-c2ccncc2)cc1 [#ID 316]

- GAA FP% (residual FP-signal) [1]: 4.8%
- IC50 [2]: 21 nM
- IC50 [3]: 710 nM
SMILES: OC[C@@H]1[C@@H](O)[C@H](O)[C@@H](O)CN1CCCCCOCc1ccc(-c2ccccc2)cc1F [#ID 35]

- GAA FP% (residual FP-signal) [1]: 0.8%
- IC50 [2]: 80 nM
- IC50 [3]: 1700 nM
SMILES: OC[C@@H]1[C@@H](O)[C@H](O)[C@@H](O)CN1CCCCCOCc1ccc(-c2ccc(F)nc2)cc1 [#ID 322]

- GAA FP% (residual FP-signal) [1]: 2.4%
- IC50 [2]: 16 nM
- IC50 [3]: 720 nM
SMILES: OC[C@@H]1[C@@H](O)[C@H](O)[C@@H](O)CN1CCCCCOCc1ccc(-c2ccccc2)c(C(F)(F)F)c1 [#ID 120]

- GAA FP% (residual FP-signal) [1]: 1.8%
- IC50 [2]: 54 nM
- IC50 [3]: 520 nM
SMILES: OC[C@@H]1[C@@H](O)[C@H](O)[C@@H](O)CN1CCCCCOCc1cccc(-c2ccccc2)c1 [#ID 341]

- GAA FP% (residual FP-signal) [1]: 2.5%
- IC50 [2]: 36 nM
- IC50 [3]: 1700 nM
SMILES: OC[C@@H]1[C@@H](O)[C@H](O)[C@@H](O)CN1CCCCCOCc1ccc(-c2ccc(C(F)(F)F)cc2)cc1 [#ID 307]

- GAA FP% (residual FP-signal) [1]: 0.6%
- IC50 [2]: 43 nM
- IC50 [3]: 250 nM
SMILES: OC[C@@H]1[C@@H](O)[C@H](O)[C@@H](O)CN1CCCCCOCc1ccc(-c2ccccc2)cc1 [#ID 343]

- GAA FP% (residual FP-signal) [1]: 20%
- IC50 [2]: 760 nM
- IC50 [3]: 9320 nM
SMILES: OC[C@@H]1[C@@H](O)[C@H](O)[C@@H](O)CN1CCCCCOCc1ccccc1 [#ID 139]

- GAA FP% (residual FP-signal) [1]: 3.6%
- IC50 [2]: 37 nM
- IC50 [3]: 1600 nM
SMILES: OC[C@@H]1[C@@H](O)[C@H](O)[C@@H](O)CN1CCCCCOCc1ccc(-c2ccccc2)c(F)c1 [#ID 37]

- GAA FP% (residual FP-signal) [1]: 0.1%
- IC50 [2]: 37 nM
- IC50 [3]: 420 nM
SMILES: N#Cc1ccc(-c2ccc(COCCCCCN3C[C@H](O)[C@@H](O)[C@H](O)[C@H]3CO)cc2)cc1 [#ID 309]

- GAA FP% (residual FP-signal) [1]: 0.6%
- IC50 [2]: 85 nM
- IC50 [3]: 1700 nM
SMILES: OC[C@@H]1[C@@H](O)[C@H](O)[C@@H](O)CN1CCCCCOCc1ccc(-c2cccnc2)cc1 [#ID 318]

- GAA FP% (residual FP-signal) [1]: 0.8%
- IC50 [2]: 98 nM
- IC50 [3]: 1600 nM
SMILES: OC[C@@H]1[C@@H](O)[C@H](O)[C@@H](O)CN1CCCCCOCc1ccc(-c2ccccc2F)cc1 [#ID 330]

- GAA FP% (residual FP-signal) [1]: 1.0%
- IC50 [2]: 82 nM
- IC50 [3]: 1300 nM
SMILES: OC[C@@H]1[C@@H](O)[C@H](O)[C@@H](O)CN1CCCCCOCc1ccc(-c2cncnc2)cc1 [#ID 320]

- GAA FP% (residual FP-signal) [1]: 0.7%
- IC50 [2]: 21 nM
- IC50 [3]: 1700 nM
SMILES: N#Cc1ccccc1-c1ccc(COCCCCCN2C[C@H](O)[C@@H](O)[C@H](O)[C@H]2CO)cc1 [#ID 328]

- GAA FP% (residual FP-signal) [1]: 0.9%
- IC50 [2]: 100 nM
- IC50 [3]: 620 nM
SMILES: OC[C@@H]1[C@@H](O)[C@H](O)[C@@H](O)CN1CCCCCOCc1ccccc1-c1ccccc1 [#ID 339]

- GAA FP% (residual FP-signal) [1]: 0.3%
- IC50 [2]: 20 nM
- IC50 [3]: 380 nM
SMILES: COc1ccc(-c2ccc(COCCCCCN3C[C@H](O)[C@@H](O)[C@H](O)[C@H]3CO)cc2)cc1 [#ID 305]

- GAA FP% (residual FP-signal) [1]: 0.9%
- IC50 [2]: 43 nM
- IC50 [3]: 1400 nM
SMILES: OC[C@@H]1[C@@H](O)[C@H](O)[C@@H](O)CN1CCCCCOCc1ccc(-c2ccc(F)cc2)cc1 [#ID 311]
